How the values were obtained:
[1] = C18-HPLC assay (hydrophobicity); format: physicochemical; settings: for logk0 (HPLC hydrophobicity index, intercept of linear equation): Zorbax SB C18, PBS pH 7.4/methanol, extrapolated to zero organic modifier
Method: The principles of hydrophobicity determination by HPLC are characterized by the logarithm of retention factor (k), defined as logk = log (tR−t0)/t0, where tR is retention time of analyte and t0 is the dead time. […] The percentage of methanol in the mobile phase was optimized so that the analytes had retention time between dead time and a maximum of 20 min keeping the analysis time as short as possible, and the peak shape acceptable (peak asymmetry factor were between 0.8 and 1.2). […] The HPLC hydrophobicity index, logk0, was determined by extrapolation of the organic modifier in the mobile phase to its zero concentration.
(§1) Stock solutions of analytes and calibration standards were prepared by dissolving 10 mg of each solute in 10 mL of methanol and kept at 4 °C. Working solutions were freshly prepared at the beginning of each day by dilution of the stock solutions to 100 μg/mL with methanol for TLC measurements or mobile phase for HPLC measurements. Before use, the samples were sonicated (Elmasonic XtraTT, Elma Schmidbauer) for 10 min at 25 °C and all working solutions were filtered through 0.2 µm polyethersulfone filters (Obrnuta faza). To protect analytes from photodegradation, the amber glass HPLC vials were used.
(§2) C18-HPLC assay was carried out at Agilent HPLC 1100 and Zorbax SB C18 chromatographic column (length 250 mm.6 mm, particle size 5 µm) by Agilent Technologies, while IAM-HPLC assay was conducted using IAM P.C.DD2 chromatographic column (length 50 mm, i.d. 3.0 mm, particle size […]) by Regis Technologies (Morton Grove, IL, USA). Retention data were collected at 25.0 ± 0.1 °C using isocratic method working with mobile phases, mixing the respective amounts of PBS (10 mM, pH 7.4) and methanol from 35% to 80% of organic solvent in 5% increment. Each mobile phase was shaken vigorously and filtrated through membrane filter, no. 66, diameter 47 mm, pore size 0.45 µm by Supelco and degassed by sonication 5 min before use. The injection volume was set at 10 µL, and the measurements were carried out at flow rate 1.0 mL/min. Natrium nitrate solution (0.1 mg/mL in mobile phase) was used as the marker of dead-time. The absorbance of the analytes during a chromatographic run was collected in the spectral range of 200–400 nm, and the detection wavelength for each analyte was the one providing the maximum peak height.

[2] = IAM-HPLC assay (lipophilicity, affinity to phospholipids); format: physicochemical; settings: for logk0 IAM (HPLC lipophilicity index, intercept of linear equation): IAM P.C.DD2 column, PBS pH 7.4/methanol, extrapolated to zero organic modifier
Method: IAM columns provide potential to simulate membrane permeability since the amphiphilic character of phospholipid functional groups plays an important role in IAM retention especially when charged molecules are analysed.
as §1, §2

SMILES	logk0 (HPLC hydrophobicity index, intercept of linear equation) [1]	logk0 IAM (HPLC lipophilicity index, intercept of linear equation) [2]	difference in logk0 values versus andrographolide ([1]; compared to andrographolide) [units]	difference in logk0 IAM values versus andrographolide ([2]; compared to andrographolide) [units]
C=C1CC[C@@H]2[C@](C)(CO)[C@H](O)CC[C@@]2(C)[C@@H]1C/C=C1/C(=O)OC[C@H]1O [Andrographolide, andrographolide]	y = −0.0271 x + 1.9065	y = −0.0464 x + 2.2763		
O=C(C=Cc1ccc(O)cc1)CC(=O)C=Cc1ccc(O)cc1 [Bisdemetoxycurcumin, bisdemetoxycurcumin]	y = −0.0447 x + 3.4174	y = −0.0568 x + 4.6386		
COc1cc(/C=C/C(=O)CC(=O)/C=C/c2ccc(O)cc2)ccc1O [Demetoxycurcumin, demetoxycurcumin]	y = −0.0448 x + 3.4349	y = −0.0555 x + 4.4229		
C=C1CC[C@@H]2[C@](C)(CO[C@@H]3O[C@H](CO)[C@@H](O)[C@H](O)[C@H]3O)CCC[C@@]2(C)[C@@H]1CCC1=CCOC1=O [Neoandrographolide, neoandrographolide]	y = −0.0359 x + 2.8595	y = −0.0620 x + 3.4572	0.95	1.18
O=C(/C=C/C=C/c1ccc2c(c1)OCO2)N1CCCCC1 [Piperine, piperine]	y = −0.0394 x + 3.4218	y = −0.0512 x + 3.2026		

— paper PMC9413514, “Accessing Lipophilicity and Biomimetic Chromatography Profile of Biologically Active Ingredients of Botanicals Used in the Treatment of Inflammatory Bowel Disease” (Pharmaceuticals, 2022)
